The target of experiment [1] is T1, BhorOBPm2 (Batocera horsfieldi, UniProt D4P5A8).
T1 construct: antennal cDNA, ORF 435 bp, 145 residues printed incl; 21-residue signal peptide; reverse primer encodes ETFIFF-stop
Nature of the experiment: 1-NPN fluorescence competition binding. As to conditions: pH 7.4, 30 mM Tris-HCl, room temperature, 2 μM protein, 2 μM 1-NPN.

Experiment [2] has as its system CquiOBP1. As to conditions: cited from earlier work.
The target of experiment [3] is T1, BhorOBPm2. Briefly: 1-NPN fluorescence competition binding. As to conditions: pH 7.4, 30 mM Tris-HCl, room temperature, 2 μM protein, 2 μM 1-NPN; reciprocal Ki, not Ki itself.
In experiment [4] the target is T1, BhorOBPm2. Briefly: direct 1-NPN fluorescence titration, Scatchard plot. Type of experiment: binding. As to conditions: 30 mM Tris-HCl, room temperature, 2 μM protein, 0-28 μM 1-NPN; fluorescent probe.
Experiment [5] has as its system BhorOBPm2. Briefly: Fluorescence competition-binding assay with 1-NPN probe, wild-type BhorOBPm2. Also on record: species or system Batocera horsfieldi. The note with it: BhorOBPm2, discussion. As for the experimental part: Fluorescence competition-binding assays were performed to determine the binding affinity of the BhorOBPm2 protein for various ligands using 1-NPN as a fluorescent probe. […] The fluorescence of 1-NPN was excited at 337 nm, and emission was recorded at between 350 nm and 600 nm using a RF-5301PC fluorescence spectrophotometer (Shimadzu, Kyoto, Japan), a 1-cm light path, and a quartz cuvette. The competitive binding of ligands was measured using 1-NPN (2 μM) as the fluorescent probe with a stoichiometry of 1:1 (protein:ligand), with the final concentration of each ligand added to the sample ranging from 0 μM to 20 μM. […] The binding data were obtained from three independent measurements. […] Binding affinities (Ki) of the OBPs for each ligand were determined based on the IC50 value (the initial fluorescence level of the competitor concentration reduced by half) using the equation: Ki = [IC50]/(1 + [1-NPN]/K1-NPN), where [1-NPN] is the free concentration of 1-NPN, and K1-NPN is the dissociation constant of the complex BhorOBPm2/1-NPN.

T1 sequence (D4P5A8 entry or part of it): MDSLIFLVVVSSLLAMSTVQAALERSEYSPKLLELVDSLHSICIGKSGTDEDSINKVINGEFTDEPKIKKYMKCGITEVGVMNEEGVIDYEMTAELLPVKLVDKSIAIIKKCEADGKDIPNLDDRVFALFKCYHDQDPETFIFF

Consider `CCCCCCCCCCCCC` [tridecane], for which the “1/Ki*1000” value in experiment [1] was 262.09 1/Ki(uM)*1000.

For the compound `CCCCCCCCCC=O` [decanal], in experiment [2], the “binding affinity (in words)” value is “high binding affinities”. The “1/Ki*1000” value in experiment [1] is recorded as 102.21 1/Ki(uM)*1000.

Consider `CCCCCCCC=O` [octanal], for which, in experiment [1], the “1/Ki*1000” value is on record as 54.09 1/Ki(uM)*1000.

For the compound `CCCCCCCC=O` [Octanal, octanal], the “binding affinity (in words)” value in experiment [2] was “high binding affinities”.

Consider `CCCCCCCCC=O` [nonanal], for which, in experiment [2], the “binding affinity (in words)” value is reported as “high binding affinities”. For the same compound, the “1/Ki*1000” value in experiment [1] is reported as 50.40 1/Ki(uM)*1000.

For the compound `CCCCCCCCCCCC(C)=O` [2-tridecanone], the “1/Ki*1000” value in experiment [1] is listed as 353.05 1/Ki(uM)*1000.

Farnesene: the “1/Ki(μM) × 1000” value in experiment [3] is recorded as 1159.11 1000/μM (reciprocal of Ki in μM, times 1000).

As for `c1ccc(Nc2cccc3ccccc23)cc1` [N-phenyl-1-naphthylamine], the Kd entry in experiment [4] was “The dissociation constants (Kd) of the OBPs for 1-NPN were calculated from Scatchard plots”.

With `CCCCCCCCCCCCCCCCCCCCCCCCCCC` [heptacosane], the “binding affinity (in words)” value in experiment [5] is recorded as “low binding affinities”. Further, the “1/Ki*1000” value in experiment [1] is given as 45.56 1/Ki(uM)*1000.

In the case of `CCCCCCCCCCCCCC` [tetradecane], the “1/Ki*1000” value in experiment [1] is given as 94.91 1/Ki(uM)*1000.

As to `CCCCCCCCCCCCCCCCCCCCCCCCC` [pentacosane], the “binding affinity (in words)” value in experiment [5] was “low binding affinities”. The “1/Ki*1000” value in experiment [1] is on record as 1.89 1/Ki(uM)*1000.

Consider farnesene, for which, in experiment [5], the “binding affinity (in words)” value is reported as “highest binding affinity”.

The record behind these values is PMC5034290, “Predicted structure of a Minus-C OBP from Batocera horsfieldi (Hope) suggests an intermediate structure in evolution of OBPs” (Scientific Reports, 2016).
